In PMC3006138, “Fexinidazole – A New Oral Nitroimidazole Drug Candidate Entering Clinical Development for the Treatment of Sleeping Sickness” (PLoS Neglected Tropical Diseases, 2010):
“And” between values parts separate entries of the source, which are not always exact repeats. Identical values can stand only once. Like-named read-outs stand apart in the source and are kept apart here.

Experiments:
dog hepatocytes = test: Hepatocyte intrinsic clearance and metabolite profile; format: in vitro ADME; settings: fexinidazole 10 µM
Method: Fexinidazole was incubated with cryopreserved hepatocytes from male CD-1 mice, male Sprague Dawley rats, male beagle dogs, male cynomolgus monkeys, and from pooled white or African-American human donor samples (purchased commercially), at concentrations of 1 µM and 10 µM. […] The incubated samples were analyzed by LC-MS after extraction into acetonitrile.
A quality control analysis of fexinidazole was performed via 1H-NMR in DMSO and LC- […]
provided by the Swiss Tropical Institute (Basel, Switzerland).
Reagents and solvents were of analytical grade and obtained from Sigma-Aldrich (St. Louis, […]
Cryopreserved hepatocytes from the male CD1 mouse, lot CSI; male Sprague Dawley rat, lot LPL; male beagle dog, lot BWX; male cynomolgus monkey, lot EHH; and pooled human samples, lot MJI, were purchased from In Vitro Technologies Inc (Baltimore, Maryland, […]
5.4. In vitro Incubations
On the day of the experiment a 10 mM stock solution of fexinidazole in DMSO was prepared and, within 3 hours, aliquots of this freshly prepared solution, after suitable dilution, were added to the incubation matrix, to reach fexinidazole final concentrations of 1 and 10 µM. The final percentage of DMSO was 0.01% in the incubation samples for the […]
On the day of experiment, the cryopreserved hepatocytes were thawed following the detailed instructions provided by the supplier.
The number of viable cells was determined using a Trypan Blue exclusion method.
5.4.1. Intrinsic Clearance Study […]
µM with mouse, rat, dog, monkey and human hepatocytes (300000 cells/mL for the mouse and 1 million cells/mL for the other species) in a final incubation volume of 0.75 mL […]
Incubations were performed in duplicate in a 48-well plate under shaking. Sampling was performed using an automatic liquid handling system (Multiprobe II EX, Packard). At 0, 1, 5, 10, 15, 20, 30, 60 and 120 minutes, 50 µL aliquots of the incubates were taken, then 80 µL of ice-cold acetonitrile and 20 µL of 1 µM warfarin in acetonitrile (internal standard) were added, and samples centrifuged at 2000 rpm for 20 min. The supernatant was analyzed by LC-MS/MS. […]
the medium alone at t = 0 and 120 minutes.
For the determination of phase I and phase II activity of hepatocytes, 7-ethoxycoumarin (7-EC) 1 µM, and 7-hydroxycoumarin (7-HC) 30 µM were used as positive controls and incubated under the same conditions as fexinidazole. Aliquots of incubates were taken at 0, 10, 20, 30, 60 and 120 minutes and processed as fexinidazole samples.
5.4.2. Metabolite Profile Study
For metabolite profiling, fexinidazole was incubated at a concentration of 10 µM with mouse, rat, dog, monkey and human hepatocytes (300000 cells/mL for the mouse and 1 million cells/mL for the other species) in a final incubation volume of 2 mL Leibovitz L-15 […]
Aliquots of the incubation samples were taken at t = 0, 30 and 120 minutes; the metabolism was stopped by the addition of an equal volume of cold acetonitrile and the samples centrifuged at 1500 rpm for 20 min. The supernatant was stored at -20°C until analysis. Control incubations were performed with the compound in the medium alone […]
5.5. Analysis of Samples for Intrinsic Clearance Determination
The analysis of the samples for intrinsic clearance determination was performed by an LC-MS/MS method, using the following conditions:
HPLC Equipment and Conditions
HPLC system Agilent 1100 binary pump (Agilent, Palo Alto, USA)
Autosampler CTC Pal (Alfatech, San Jose, USA)
Analytical column Guard Column SB-C8 4.6 x 12.5 mm, 5 µm (Zorbax)
Column temperature ambient
Mobile phase A 10 mM ammonium formate pH 4.0: acetonitrile (95:5, v:v)
Mobile phase B 10 mM ammonium formate pH 4.0: acetonitrile (5:95, v:v) […]
Gradient conditions Step Total time (min) flow (µL/min) %A % B […]
MS Equipment and Conditions
Mass spectrometer API 4000 Triple Quadrupole (MDS-Sciex, Toronto, […]
Source Turbo Ion Spray (TIS)
Ion mode Positive for fexinidazole and 7-EC.
Negative for 7-HC, 7-HC sulphate and 7-HC glucuronide.

[1] = Dog single-dose IV and oral pharmacokinetics; format: in vivo; settings: for AUC(0-t): read-out: AUC0-t(last); for half-life: read-out: t1/2,z (converted)
Method: Pharmacokinetic Report for the study No. 0320-2007
Fexinidazole was given as IV and oral administrations to male Beagle dogs according to the […]
Dog ID Route Dose Formulation
IV dose was administered via the radial vein, the oral dose was administered by gastric […]
gavage. A washout period of […] was allowed between the IV (Day 1) and oral (Day 12) […]
4.2. Sample Collection and Handling
Blood was withdrawn from jugular vein and collected in heparinized plastic tubes kept on an […]
ice/water bath, then centrifuged at 1200g for 10 minutes at 4°C. Three aliquots of the […]
separated plasma (about 0.2 mL) was stored at -80°C until analysis for Fexinidazole and its […]
sulphone and sulphoxide metabolites. Blood was taken at pre-dose and 0.083 (5 minutes), […]
4.3. Bioanalytical Method
Plasma concentrations of Fexinidazole and its sulphone and sulphoxide metabolites were […]
determined by LC-MS-MS method following plasma protein precipitation. The lower limit […]
of quantification of the bioanalytical method was 5 ng/mL for all analytes. Bioanalytical data […]
Details of the bioanalytical method used are reported in Appendix 2 and analytical […]
performances of calibration standards are reported in Appendix 3.
4.4. Pharmacokinetic Calculations
Pharmacokinetic evaluations of Fexinidazole and sulphone and sulphoxide metabolites were […]
For the calculations, the pre-dose concentrations of Fexinidazole were set equal to C0.083 […]
after IV administration, whilst the pre-dose concentrations of Fexinidazole after oral […]
administration and the pre-dose concentrations of the metabolites after both doses were set […]
Nerviano Medical Sciences
After IV and oral dosing, Cmax (C0.083 for Fexinidazole after IV dosing) and tmax of each […]
concentration. After both doses, for each compound, the area under plasma concentration vs. […]
last detectable concentration. The half-life of the terminal phase, t1/2,z, was determined by […]
linear regression analysis of the natural-log concentration vs. time curve, where t1/2,z = […]
ln(2)/slope of the regression line. […]
infinite time, AUC0-∞, was determined as
AUC0- ∞ = AUC0 − t(last) + Ct(last)⋅ […]
The fraction of AUC0-∞ accounted for by the extrapolated area under the curve was […]
%EXTt (last)− 0∞=100⋅AUCt(last)−∞
After IV dosing, plasma clearance and volume of distribution at steady state of Fexinidazole […]
were calculated as follows:
Vss = CL⋅MRT, where MRT is the mean residence time.
Absolute bioavailability of Fexinidazole was calculated from the ratio of individual oral to […]
IV dose-normalized AUC0-t(last) and AUC0-∞ values.
After both doses, Cmax and AUC values of each compound were also normalized to a 1 […]
pharmacokinetic parameters sorted by compound and route of dosing.
Plasma concentrations and pharmacokinetic parameters of each compound were reported to […]
three significant figures.
5.1.1. Clinical and Physical Examinations
Individual clinical signs are reported in Appendix 4. […]
treatments with Fexinidazole. No meaningful clinical signs were recorded during wash out

[2] = dog, oral 10 mg/kg vs IV 1 mg/kg
[3] = dog, plasma, fexinidazole 1 mg/kg IV, male Beagle dogs, read-out: Cmax (C0.083 for parent)
[4] = male, Beagle, dog, plasma, fexinidazole 1 mg/kg IV
[5] = male, Beagle, dog, plasma, fexinidazole 10 mg/kg oral
[6] = male, Beagle, dog, plasma, fexinidazole 10 mg/kg oral, read-out: Cmax

SMILES | % of total drug related material (dog hepatocytes; t=0) [%] | clinical signs ([1]; 1 mg/kg IV and 10 mg/kg oral) | F% AUC0-t(last) [1, 2] | F% AUC0-∞ [1, 2] [%] | Cmax [1, 3] [ng/mL] | clearance ([1]; male, Beagle, dog, plasma, 1 mg/kg IV) [mL/min/kg] | Vd ([1]; male, Beagle, dog, plasma, 1 mg/kg IV, read-out: Vss) [L/kg] | AUC(0-inf) [1, 4] [ng·h/mL] | AUC(0-t) [1, 4] [ng·h/mL] | half-life [1, 4] [h] | AUC(0-inf) [1, 5] [ng·h/mL] | Tmax [1, 5] [h] | AUC(0-t) [1, 5] [ng·h/mL] | Cmax [1, 6] [ng/mL] | half-life [1, 5] [h] | % of total drug related material (dog hepatocytes; 30 min) [%] | % of total drug related material (dog hepatocytes; 120 min) [%] | Tmax [1, 4] [h]
CSc1ccc(OCc2ncc([N+](=O)[O-])n2C)cc1 [Fexinidazole, 1-methyl-2-((p-(methylthio)phenoxy)methyl)-5-nitroimidazole] | 50 | No significant treatment related clinical signs | 10% and 9.60 ±4.32% | 14.1 | 320 ± 136 | 273 | 3.26 | 70.6 ± 33.8 | 66.9 ± 31.8 | 0.406 | 85.3 ± 1.27 | 0.667 | 57.2 ± 13.4 | 24.2 ± 5.86 | 1.93 | – | – | –
Cn1c([N+](=O)[O-])cnc1COc1ccc([S+](C)[O-])cc1 (stereo not drawn) [Fexinidazole sulfoxide] | 50 | – | – | – | 763 ± 45.3 | – | – | 1520 ± 208 | 1480 ± 197 | 1.16 | 8780 ± 895 | 1.17 | 8560 ± 767 | 1900 ± 186 | 5.72 | 94 | 84 | 0.194
Cn1c([N+](=O)[O-])cnc1COc1ccc(S(C)(=O)=O)cc1 [Fexinidazole sulfone] | – | – | – | – | 681 ± 162 | – | – | – | 5270 ± 1230 | – | – | 6.67 | 44700 ± 3810 | 3260 ± 762 | – | 4 | 15 | 4.67
